Assay results as given in patent US10563263B2, “Genetic polymorphisms associated with statin response and cardiovascular diseases, methods of detection and uses thereof” (CELERA CORPORATION, priority 2010, dated 2020).

System: recurrent MI
Assay: CARE: CHD statin response (recurrent MI) by SNP genotype, hazard ratio pravastatin vs placebo (Table 22)
Format: in vivo, human
Details: rs873134 (hCV2652047), ref = placebo
Description: (§1) In the analysis for which the results are provided in Table 22, the endpoint was recurrent MI, and the analysis was adjusted for age, gender, hypertension, diabetes, base LDL and HDL, and whether an individual was a current smoker.
In Tables 20-22, certain columns are labeled “RESP”, “PLACEBO, OR “ALL”. “RESP” is for statin response as measured by comparing risk (risk for stroke, including TIA, in Tables 20-21, and risk for CHD, specifically recurrent MI, in Table 22) in the pravastatin-treated group with risk in the placebo-treated group, “PLACEBO” is the placebo-treated group, and “ALL” is the combination of the placebo-treated group and the pravastatin-treated group. “RESP” is the analysis to assess statin response in the indicated genotype group.
“EVENTS” indicates the total number of events (stroke or TIA for Tables 20-21, and recurrent MI for Table 22) in individuals with the indicated genotype.
“HR” indicates the hazard ratio.
CARE was a secondary prevention trial and WOSCOPS was a primary prevention trial.
as §1, with “Thus, SNP rs873134 is an example of a SNP that is associated with statin response for reducing risk for both stroke and CHD. In” for “In”

`CC[C@H](C)C(=O)O[C@H]1C[C@H](O)C=C2C=C[C@H](C)[C@H](CC[C@@H](O)C[C@@H](O)CC(=O)O)[C@H]21` [Pravastatin, pravastatin] was tested, and the “HR_RESP (hazard ratio pravastatin vs placebo, CHD)” value (MODE DOM, genotype TC + TT) was 0.85, the “HR_RESP (hazard ratio pravastatin vs placebo, CHD)” value (MODE GEN, genotype CC) was 0.48 and the “HR_RESP (hazard ratio pravastatin vs placebo, CHD)” value (MODE GEN, genotype TC) was 1. For the same molecule, the “HR_RESP (hazard ratio pravastatin vs placebo, CHD)” value (MODE GEN, genotype TT) was 0.57.
